Experimental data: ChEMBL document CHEMBL1201862, “PubChem BioAssay data set” (2004)
Active and inactive are the calls of the source.

Columns and labels:
[1] = target: T1, High affinity choline transporter 1 (Homo sapiens, UniProt Q9GZV3); assay: human choline transporter blockers, potency – cell-based, 10-point CRC, membrane potential dye, dose response (AID 588401); type: functional;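 further: membrane potential dye fluorescence of choline-evoked depolarization via CHT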
T1 sequence (Q9GZV3 whole entry): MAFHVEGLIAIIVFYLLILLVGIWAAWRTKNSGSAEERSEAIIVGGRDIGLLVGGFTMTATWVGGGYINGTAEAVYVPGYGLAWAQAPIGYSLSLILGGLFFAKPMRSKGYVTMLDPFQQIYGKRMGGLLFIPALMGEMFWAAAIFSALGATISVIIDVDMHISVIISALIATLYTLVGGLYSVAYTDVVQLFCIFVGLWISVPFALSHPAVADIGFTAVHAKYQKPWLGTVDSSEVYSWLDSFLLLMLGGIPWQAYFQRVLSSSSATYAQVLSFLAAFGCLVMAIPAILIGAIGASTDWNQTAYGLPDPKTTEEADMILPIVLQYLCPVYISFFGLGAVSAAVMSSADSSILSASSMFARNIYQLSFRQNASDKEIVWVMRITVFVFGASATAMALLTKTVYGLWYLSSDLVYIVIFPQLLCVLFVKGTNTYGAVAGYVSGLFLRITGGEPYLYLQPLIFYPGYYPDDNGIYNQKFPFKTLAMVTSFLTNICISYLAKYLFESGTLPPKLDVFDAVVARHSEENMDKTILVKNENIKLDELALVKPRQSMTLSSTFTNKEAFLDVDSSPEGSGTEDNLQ

[2] = target: T1, High affinity choline transporter 1; assay: human choline transporter blockers, potency – cell-based, 5-point CRC, membrane potential dye, dose response (AID 504840); type: functional
[3] = target: Potassium voltage-gated channel subfamily KQT member 2 (Rattus norvegicus, UniProt O88943); assay: blockers of KCNQ2 channel current – cell-based, automated electrophysiology, set II, rat KCNQ2, dose response (AID 588637); type: functional
[4] = system: Escherichia coli; assay: microbe, parasite or virus in culture
[5] = system: Escherichia coli; assay: microbe, parasite or virus in culture; remark: listed apart in the source
[6] = target: Prothrombin (Bos taurus, UniProt P00735); assay: thrombin protease inhibitors – biochemical, fluorescence polarization, uHTS hits, dose response (AID 602369); type: functional
[7] = target: 26S proteasome non-ATPase regulatory subunit 14 (Homo sapiens, UniProt O00487); assay: inhibition of proteasome subunit RPN11 – biochemical, fluorescence polarization, uHTS hits, confirmation (AID 602368); type: functional
[8] = target: 72 kDa type IV collagenase (Homo sapiens, UniProt P08253); assay: Dose Response validation of uHTS RPN11 inhibitor hits using a MMP-2 Fluorescence assay.; type: functional
[9] = target: Sentrin-specific protease 6 (Homo sapiens, UniProt Q9GZR1); type: functional;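 further: Luminescence-based dose-response confirmatory assay of SENP6 inhibition, following up an ultra-high-throughput screen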
[10] = target: T2, Caspase-3 (Homo sapiens, UniProt P42574); type: functional;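 further: Dose-response selectivity test against caspase-3 for candidate inhibitors of sentrin-specific proteases (SENPs)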
T2 sequence (P42574 whole entry): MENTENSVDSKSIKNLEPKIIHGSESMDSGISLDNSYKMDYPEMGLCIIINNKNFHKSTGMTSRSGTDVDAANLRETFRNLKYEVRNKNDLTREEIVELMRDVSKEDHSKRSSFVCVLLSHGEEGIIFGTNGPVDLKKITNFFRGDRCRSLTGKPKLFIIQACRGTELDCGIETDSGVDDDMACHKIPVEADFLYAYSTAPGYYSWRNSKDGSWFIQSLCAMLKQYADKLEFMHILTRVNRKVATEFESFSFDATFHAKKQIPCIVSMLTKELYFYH

[11] = target: Sentrin-specific protease 7 (Homo sapiens, UniProt Q9BQF6); type: functional;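 further: Luminescence-based dose-response confirmation of ultra-high-throughput screening hits, measuring inhibition of SENP7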
[12] = target: T3, Sentrin-specific protease 8 (Homo sapiens, UniProt Q96LD8); type: functional;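 further: luminescence read-out of SENP8 inhibition, dose-response confirmation following an ultra-high-throughput screen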
T3 sequence (Q96LD8 whole entry): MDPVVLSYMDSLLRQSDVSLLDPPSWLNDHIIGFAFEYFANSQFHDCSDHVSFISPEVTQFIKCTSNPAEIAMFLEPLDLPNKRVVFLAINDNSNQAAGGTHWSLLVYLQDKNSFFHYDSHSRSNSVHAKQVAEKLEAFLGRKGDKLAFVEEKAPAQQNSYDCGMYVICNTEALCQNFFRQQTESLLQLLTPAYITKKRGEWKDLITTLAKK

[13] = target: Apoptotic protease-activating factor 1 (Homo sapiens, UniProt O14727); assay: SAR analysis of small molecule Activators of Apaf-1 in a Fluorescent assay.; type: functional; details: read-out: EC50_Mean;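 further: caspase-3 cleavage of fluorogenic Rh110 DEVD substrate downstream of apoptosome activation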
[14] = target: T4, Corticotropin-releasing factor receptor 2/Corticotropin-releasing factor-binding protein (Homo sapiens, UniProt P24387+Q13324); assay: activators of CRF receptor 2 with binding protein – uHTS hits, confirmation (AID 602473); type: functional; details: read-out: EC50_Mean
T4 sequence (Q13324 whole entry): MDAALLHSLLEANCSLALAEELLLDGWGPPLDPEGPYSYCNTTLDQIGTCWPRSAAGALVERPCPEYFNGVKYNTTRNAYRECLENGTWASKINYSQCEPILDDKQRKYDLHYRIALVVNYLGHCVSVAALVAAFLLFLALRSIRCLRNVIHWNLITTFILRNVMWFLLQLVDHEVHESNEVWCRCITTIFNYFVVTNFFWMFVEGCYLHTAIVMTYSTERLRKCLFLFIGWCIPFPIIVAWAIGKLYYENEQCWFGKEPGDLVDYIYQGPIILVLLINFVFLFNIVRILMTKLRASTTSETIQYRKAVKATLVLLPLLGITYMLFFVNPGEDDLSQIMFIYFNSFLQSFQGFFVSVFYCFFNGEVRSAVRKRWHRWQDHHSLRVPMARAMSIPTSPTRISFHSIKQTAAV
T4 sequence (P24387 whole entry): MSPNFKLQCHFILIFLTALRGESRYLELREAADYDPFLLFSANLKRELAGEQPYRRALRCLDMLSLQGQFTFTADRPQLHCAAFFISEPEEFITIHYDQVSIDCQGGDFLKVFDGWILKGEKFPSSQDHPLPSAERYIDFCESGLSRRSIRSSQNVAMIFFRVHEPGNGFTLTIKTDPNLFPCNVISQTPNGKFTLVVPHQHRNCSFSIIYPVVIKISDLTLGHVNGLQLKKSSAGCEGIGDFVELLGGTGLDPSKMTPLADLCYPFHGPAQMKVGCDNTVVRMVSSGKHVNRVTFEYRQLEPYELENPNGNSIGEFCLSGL

[15] = Luminescence Cell-Based Dose Retest to Confirm Inhibitors of Cancer Stem Cells. [Related pubchem assays (depositor defined):AID2717, AID2721]; type: functional; details: Homo sapiens
[16] = target: 5-hydroxytryptamine receptor 5A (Homo sapiens, UniProt P47898); assay: Counterscreen for agonists of OPRM1-OPRD1 heterodimerization: luminescence-based cell-based high throughput dose response assay to identify agonists of 5-hydroxytryptamine (serotonin) 5A receptor (HTR5A). [Related pubchem assays (depositor defined):AID504326, AID504355, AID504692, AID504904, AID504905]; type: functional
[17] = target: Delta-type opioid receptor (Homo sapiens, UniProt P41143); assay: Counterscreen for agonists of heterodimerization of the mu 1 (OPRM1) and delta 1 (OPRD1) opioid receptors: Luminescence-based cell-based high throughput dose response assay to identify agonists of OPRD1 homodimerization. [Related pubchem assays (depositor defined):AID504326, AID504355, AID504692, AID504904, AID504905]; type: functional
[18] = target: Mu-type opioid receptor (Homo sapiens, UniProt P35372); assay: Counterscreen for agonists of heterodimerization of the mu 1 (OPRM1) and delta 1 (OPRD1) opioid receptors: Luminescence-based cell-based high throughput dose response assay to identify agonists of OPRM1 homodimerization.; type: functional;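 further: U2OS cells expressing OPRM1 and beta-arrestin as split beta-galactosidase partners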
[19] = target: DNA (cytosine-5)-methyltransferase 1 (Homo sapiens, UniProt P26358); assay: inhibition of DNA methylation by DNMT1 – biochemical, fluorescent molecular beacon, confirmation (AID 602386); type: functional
[20] = target: Ras and Rab interactor 1/Tyrosine-protein kinase ABL1 (Homo sapiens, UniProt P00519+Q13671); type: functional;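 further: biochemical TR-FRET dose-response test measuring inhibition of binding between Rin1 and Abl proteins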
[21] = blockers of HIV-1 envelope-mediated cell-cell fusion – cherry-pick, dose response (AID 652057); type: functional, cell-based
[22] = viability loss in CEM21 cells – cell-based, plate reader, dry powder, cytotoxicity control, dose response (AID 687026); type: functional
[23] = HIV-1 AD8 envelope cell-cell fusion blockers – cherry-pick, dose response (AID 652062); type: functional, cell-based;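 further: luciferase signal from cell-cell fusion driven by HIV-1 clade B AD8 Env; potency is for inhibitors of fusion seen as a drop in luminescence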
[24] = target: Phospholipase A2 (Homo sapiens, UniProt P04054); type: functional;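 further: confirmatory dose-response counterscreen on phospholipase A2, testing hits that came from an ultra-high-throughput screen for ATG4B inhibitors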
[25] = inhibition of Env-driven cell fusion – HIV entry, plate reader, dry powder, dose response (AID 687023); type: functional, cell-based
[26] = blockers of HIV-1 ZM109 envelope-driven cell-cell fusion – HeLa effector, CEM target cells, luciferase, cherry-pick, dose response (AID 652058); type: functional, cell-based;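 further: luciferase signal from HIV-1 Env mediated cell-cell fusion of effector and target cells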
[27] = target: Cysteine protease ATG4B (Homo sapiens, UniProt Q9Y4P1); type: functional;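 further: Fluorescence-based dose-response confirmation assay measuring inhibition of ATG4B activity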
[28] = viability of PTEN-deleted HCT116 cells – cell-based, HCT116 PTEN knockout, dose response (AID 1047); type: functional;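 further: HCT116 colon tumor cells with PTEN knocked out; cells exposed to compound for 60 hours before readout; potency for loss of cell viability measured by luminescence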
[29] = viability of HCT116 lacking mutant beta-catenin – cell-based, human colon tumor, dose response (AID 1045); type: functional;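 further: HCT116 colon tumor cells with beta catenin knocked out; cells exposed to compound for 60 hours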

Sequence of Sentrin-specific protease 6 (Q9GZR1 whole entry): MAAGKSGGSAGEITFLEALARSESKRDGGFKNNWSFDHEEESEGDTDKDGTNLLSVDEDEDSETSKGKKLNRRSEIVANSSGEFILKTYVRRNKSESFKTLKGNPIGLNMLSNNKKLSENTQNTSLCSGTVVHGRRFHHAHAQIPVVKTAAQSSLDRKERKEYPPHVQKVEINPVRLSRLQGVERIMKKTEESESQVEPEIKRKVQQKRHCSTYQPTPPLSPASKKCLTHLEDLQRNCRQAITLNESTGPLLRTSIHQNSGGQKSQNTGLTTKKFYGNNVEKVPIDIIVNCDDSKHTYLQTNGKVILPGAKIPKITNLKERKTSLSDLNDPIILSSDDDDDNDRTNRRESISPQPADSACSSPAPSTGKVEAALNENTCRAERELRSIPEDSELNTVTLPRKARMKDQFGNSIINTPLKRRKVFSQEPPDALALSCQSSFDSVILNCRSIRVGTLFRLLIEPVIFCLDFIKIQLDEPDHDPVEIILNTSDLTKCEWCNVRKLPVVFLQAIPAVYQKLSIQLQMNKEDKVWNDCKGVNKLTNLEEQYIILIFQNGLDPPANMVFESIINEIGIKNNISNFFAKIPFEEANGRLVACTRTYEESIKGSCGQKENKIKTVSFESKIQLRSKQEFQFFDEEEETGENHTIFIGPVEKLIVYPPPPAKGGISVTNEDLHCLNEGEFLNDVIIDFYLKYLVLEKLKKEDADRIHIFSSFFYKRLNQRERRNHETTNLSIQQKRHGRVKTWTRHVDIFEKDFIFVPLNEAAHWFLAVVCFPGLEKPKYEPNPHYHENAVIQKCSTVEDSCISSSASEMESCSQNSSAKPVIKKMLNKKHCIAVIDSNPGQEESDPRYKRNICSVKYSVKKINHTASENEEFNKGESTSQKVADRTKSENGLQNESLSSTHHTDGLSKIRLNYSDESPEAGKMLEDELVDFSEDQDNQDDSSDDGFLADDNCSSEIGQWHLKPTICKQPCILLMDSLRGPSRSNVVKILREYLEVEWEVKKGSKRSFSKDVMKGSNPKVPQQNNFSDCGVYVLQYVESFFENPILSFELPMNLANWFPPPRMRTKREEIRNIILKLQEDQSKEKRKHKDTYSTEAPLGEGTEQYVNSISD
Sequence of 26S proteasome non-ATPase regulatory subunit 14 (O00487 whole entry): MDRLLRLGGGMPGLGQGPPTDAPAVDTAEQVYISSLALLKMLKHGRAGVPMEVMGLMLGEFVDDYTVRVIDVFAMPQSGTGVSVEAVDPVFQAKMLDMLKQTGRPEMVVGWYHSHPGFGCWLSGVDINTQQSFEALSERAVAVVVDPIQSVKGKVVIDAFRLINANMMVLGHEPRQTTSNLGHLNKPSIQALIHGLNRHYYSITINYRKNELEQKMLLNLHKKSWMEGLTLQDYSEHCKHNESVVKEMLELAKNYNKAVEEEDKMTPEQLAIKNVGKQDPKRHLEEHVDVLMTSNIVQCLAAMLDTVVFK
Sequence of Delta-type opioid receptor (P41143 whole entry): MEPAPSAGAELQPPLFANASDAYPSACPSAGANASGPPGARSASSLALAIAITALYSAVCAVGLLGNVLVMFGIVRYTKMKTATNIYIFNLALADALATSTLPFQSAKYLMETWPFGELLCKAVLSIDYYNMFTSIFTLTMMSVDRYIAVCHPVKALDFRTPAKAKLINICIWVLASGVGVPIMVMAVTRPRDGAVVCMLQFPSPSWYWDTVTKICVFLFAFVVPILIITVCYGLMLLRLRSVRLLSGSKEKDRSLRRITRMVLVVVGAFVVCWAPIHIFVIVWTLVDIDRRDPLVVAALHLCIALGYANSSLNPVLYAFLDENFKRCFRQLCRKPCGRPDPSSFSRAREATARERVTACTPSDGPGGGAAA
Sequence of Sentrin-specific protease 7 (Q9BQF6 whole entry): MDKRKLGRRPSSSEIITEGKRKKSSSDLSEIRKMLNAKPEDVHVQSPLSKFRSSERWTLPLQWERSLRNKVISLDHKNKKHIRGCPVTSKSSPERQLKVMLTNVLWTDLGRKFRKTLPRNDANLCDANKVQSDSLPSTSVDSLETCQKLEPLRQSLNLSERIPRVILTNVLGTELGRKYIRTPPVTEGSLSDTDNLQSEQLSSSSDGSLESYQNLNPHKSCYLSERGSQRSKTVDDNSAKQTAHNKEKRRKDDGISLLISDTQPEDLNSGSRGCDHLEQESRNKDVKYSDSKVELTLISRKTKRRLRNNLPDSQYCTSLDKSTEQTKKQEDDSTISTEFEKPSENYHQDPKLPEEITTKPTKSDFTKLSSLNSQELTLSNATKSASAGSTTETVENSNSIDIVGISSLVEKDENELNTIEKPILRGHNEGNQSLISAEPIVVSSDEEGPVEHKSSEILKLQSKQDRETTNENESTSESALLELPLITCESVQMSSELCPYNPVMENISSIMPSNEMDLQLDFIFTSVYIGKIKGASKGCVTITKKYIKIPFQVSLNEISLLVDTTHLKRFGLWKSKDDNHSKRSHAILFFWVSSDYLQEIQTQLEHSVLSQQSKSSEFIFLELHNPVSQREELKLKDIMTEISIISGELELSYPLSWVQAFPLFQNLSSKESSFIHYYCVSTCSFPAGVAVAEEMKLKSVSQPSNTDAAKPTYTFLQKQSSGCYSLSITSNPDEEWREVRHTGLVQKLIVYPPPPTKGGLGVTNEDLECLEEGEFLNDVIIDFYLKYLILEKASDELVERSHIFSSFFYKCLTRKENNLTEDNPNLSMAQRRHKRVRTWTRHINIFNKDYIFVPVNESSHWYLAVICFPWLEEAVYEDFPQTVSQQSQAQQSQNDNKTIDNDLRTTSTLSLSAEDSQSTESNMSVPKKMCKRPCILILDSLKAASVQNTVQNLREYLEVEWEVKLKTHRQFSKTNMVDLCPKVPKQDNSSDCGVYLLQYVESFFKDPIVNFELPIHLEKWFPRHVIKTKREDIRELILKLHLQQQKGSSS
Sequence of Phospholipase A2 (P04054 whole entry, the tested form may be a part): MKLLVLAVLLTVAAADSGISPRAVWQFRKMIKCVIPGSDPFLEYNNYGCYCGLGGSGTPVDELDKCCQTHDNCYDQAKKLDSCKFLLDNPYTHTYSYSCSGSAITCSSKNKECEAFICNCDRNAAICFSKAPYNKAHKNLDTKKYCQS
Sequence of Mu-type opioid receptor (P35372 whole entry): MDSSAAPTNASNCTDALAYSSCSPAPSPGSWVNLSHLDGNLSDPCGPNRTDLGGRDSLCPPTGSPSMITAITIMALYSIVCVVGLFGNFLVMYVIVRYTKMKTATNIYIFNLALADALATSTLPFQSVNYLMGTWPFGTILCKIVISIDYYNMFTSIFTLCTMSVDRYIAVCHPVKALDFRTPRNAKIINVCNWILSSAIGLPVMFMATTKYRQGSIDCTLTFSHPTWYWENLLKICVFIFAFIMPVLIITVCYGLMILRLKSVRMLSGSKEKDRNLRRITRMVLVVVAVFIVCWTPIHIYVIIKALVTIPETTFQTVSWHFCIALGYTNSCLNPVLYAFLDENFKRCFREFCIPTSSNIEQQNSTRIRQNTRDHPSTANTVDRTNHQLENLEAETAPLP
Sequence of Cysteine protease ATG4B (Q9Y4P1 whole entry): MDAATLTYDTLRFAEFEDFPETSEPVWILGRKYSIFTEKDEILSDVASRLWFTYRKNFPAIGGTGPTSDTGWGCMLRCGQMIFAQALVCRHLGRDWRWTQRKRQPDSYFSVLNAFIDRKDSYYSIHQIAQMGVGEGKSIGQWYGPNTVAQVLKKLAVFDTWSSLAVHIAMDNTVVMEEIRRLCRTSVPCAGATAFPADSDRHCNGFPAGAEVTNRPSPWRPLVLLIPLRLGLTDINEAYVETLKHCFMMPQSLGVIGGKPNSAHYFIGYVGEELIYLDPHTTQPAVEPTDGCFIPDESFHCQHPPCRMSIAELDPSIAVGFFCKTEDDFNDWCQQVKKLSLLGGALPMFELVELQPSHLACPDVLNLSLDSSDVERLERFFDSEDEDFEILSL
Sequence of 5-hydroxytryptamine receptor 5A (P47898 whole entry): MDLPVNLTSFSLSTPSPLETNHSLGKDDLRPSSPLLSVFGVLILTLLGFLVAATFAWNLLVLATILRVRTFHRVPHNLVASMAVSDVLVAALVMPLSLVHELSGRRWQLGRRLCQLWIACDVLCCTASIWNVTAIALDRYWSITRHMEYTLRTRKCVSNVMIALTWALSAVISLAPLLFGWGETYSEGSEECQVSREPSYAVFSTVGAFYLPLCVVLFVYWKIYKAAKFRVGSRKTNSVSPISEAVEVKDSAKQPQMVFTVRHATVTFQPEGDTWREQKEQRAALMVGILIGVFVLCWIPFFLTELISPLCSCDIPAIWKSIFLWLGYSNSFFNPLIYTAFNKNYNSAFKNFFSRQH
Sequence of 72 kDa type IV collagenase (P08253 whole entry): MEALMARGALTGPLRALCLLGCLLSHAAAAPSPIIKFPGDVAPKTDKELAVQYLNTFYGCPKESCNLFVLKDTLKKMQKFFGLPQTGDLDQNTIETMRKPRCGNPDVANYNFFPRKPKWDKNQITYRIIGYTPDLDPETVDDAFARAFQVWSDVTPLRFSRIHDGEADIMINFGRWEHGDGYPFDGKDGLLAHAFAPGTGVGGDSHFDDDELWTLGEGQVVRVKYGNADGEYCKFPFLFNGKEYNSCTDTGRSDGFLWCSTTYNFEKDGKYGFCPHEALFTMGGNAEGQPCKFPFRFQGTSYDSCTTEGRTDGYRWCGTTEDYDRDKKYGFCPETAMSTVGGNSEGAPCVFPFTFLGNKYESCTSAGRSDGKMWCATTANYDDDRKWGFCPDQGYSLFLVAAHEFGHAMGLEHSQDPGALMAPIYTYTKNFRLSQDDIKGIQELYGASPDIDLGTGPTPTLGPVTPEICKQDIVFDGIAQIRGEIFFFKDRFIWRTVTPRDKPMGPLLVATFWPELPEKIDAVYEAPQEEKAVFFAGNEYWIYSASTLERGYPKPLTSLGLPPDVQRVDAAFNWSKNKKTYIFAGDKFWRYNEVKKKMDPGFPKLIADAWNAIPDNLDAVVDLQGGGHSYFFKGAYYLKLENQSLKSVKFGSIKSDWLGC

For `CCN(CC)CCCNC(=O)c1ccccc1NC(=O)C1=CSCCO1`, the IC50 [1] was 3.57 µM (active) and the IC50 [2] was 4.48 µM (active).
For `CN(C)S(=O)(=O)c1ccc(N2CCCC2)c(C(=O)NNC(=O)c2ccc(Br)cc2)c1`, the IC50 [3] was 3.72 µM (active).
In the case of `CN(C/C=C/c1ccccc1[N+](=O)[O-])Cc1ccccc1`, the AC50 [4] is reported as 42.7 µM (active).
In the case of `CCc1ccccc1NC(=O)CNC1CCCCC1.[O-][Cl+3]([O-])([O-])O`, the AC50 [5] is reported as 22.6 µM (active) and the AC50 [4] is reported as 76.7 µM (active).
In the case of `CN(C)CCCN/C=C1\C(=O)NC(=O)N(CCc2ccccc2)C1=O`, the IC50 [6] is reported as 35.1 µM (active), the IC50 [7] is reported as 28.7 µM (active) and the IC50 [8] is reported as > 100 µM (inactive).
With `Cc1nnsc1NC(=O)OCc1ccccc1Cl` the IC50 [9] was 45.6 µM (active), the IC50 [10] was 21.4 µM (active) and the IC50 [11] was 13 µM (active). For the same compound, the IC50 [12] was 52.7 µM (active).
In the case of `COC(=O)c1sc2nc(CSc3ccc(Br)cc3)[nH]c(=O)c2c1C`, the IC50 [6] is reported as 30 µM (active), the IC50 [7] is reported as 26.6 µM (active) and the IC50 [8] is reported as > 100 µM (inactive).
With `CCCCCCC1CC(Cc2c(C)[nH]c3ccccc23)C(=O)O1` (centres undefined) the EC50 [13] was > 100 µM (inactive).
In the case of `COc1ccc(NS(=O)(=O)c2ccc(O)c(NC(=O)c3cc4c(C)nn(-c5ccc(F)cc5)c4s3)c2)cc1`, the EC50 [14] is reported as > 53 µM (inactive), the AC50 [15] is reported as 2.11 µM (active) and the EC50 [16] is reported as > 92.5 µM (inactive). For the same compound, the EC50 [17] was > 92.5 µM (inactive), the EC50 [18] was > 92.5 µM (inactive) and the IC50 [19] was 6.92 µM (active).
In the case of `CCN(CC)CCCNC(=O)c1cn(CC)c2ccc(S(=O)(=O)N3CCc4ccccc4C3)cc2c1=O`, the IC50 [1] is reported as 2.67 µM (active) and the IC50 [2] is reported as 4.17 µM (active).
In the case of `CCOC(=O)CCCCCC(=O)Nc1ccc2c(c1)CC(=O)N([C@H](C)CO)C[C@@H](C)[C@H](CN(C)Cc1ccc3c(c1)OCO3)O2`, the IC50 [20] is reported as 30.8 µM (inactive).
For `Cc1ccccc1-c1nnc(SCc2ccccc2F)o1`, the IC50 [9] was 21.9 µM (active), the IC50 [10] was 29.1 µM (active) and the IC50 [11] was 6.14 µM (active). The IC50 [12] was 45.1 µM (active).
For `CCOc1ccc(C(=O)C2CCN(CC(=O)Nc3ccccc3N3CCOCC3)CC2)cc1`, the AC50 [21] was 3.34 µM (active), the AC50 [22] was > 70 µM (inactive) and the AC50 [23] was 0.94 µM (active). The IC50 [24] was 11.9 µM (active), the AC50 [25] was 10.4 µM (active) and the AC50 [26] was 10.8 µM (active). For the same compound, the IC50 [27] was 13.2 µM (active).
For `O=C(O)c1cc(N/N=C2/CC(c3ccccc3)Oc3ccccc32)ccc1Cl` (centres undefined), the IC50 [24] was 7.77 µM (active) and the IC50 [27] was 7.53 µM (active).
In the case of `COc1ccc2[nH]c3c(=O)n(/N=C/[C@H]4C(C)C=C(C)CC4C)c(=O)[nH]c3c2c1` (some centres undefined), the EC50 [16] is reported as > 92.5 µM (inactive), the EC50 [28] is reported as 30.5 µM (active) and the EC50 [17] is reported as > 92.5 µM (inactive). The EC50 [18] was > 92.5 µM (inactive) and the EC50 [29] was 35.4 µM (active).
